Source: the supplement of paper PMC10307832

Columns and labels:
Assay in all cases: relative viability (nuclei count vs DMSO), 5 days (fraction); higher = more cells survive
BAY61-3606 + Phenformin = compound: COC1=C(C=C(C=C1)C2=CC3=NC=CN3C(=N2)NC4=C(C=CC=N4)C(=O)N)OC [BAY61-3606] + N=C(N)NC(=N)NCCc1ccccc1 [Phenformin] (partner 250 µM)
Procedure, shortened: (§1)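 For relative viability, nuclei counts in treated wells were divided by those in vehicle wells. Lung cancer cell lines had been pin-tool dosed in 1536-well plates the day after seeding and cultured for 5 days, then fixed and stained in one step (final 0.05% Triton X-100, 1% formaldehyde, 1 ug/ml Hoechst) and imaged at 4×. Doses were one drug alone or a fixed anchor-drug dose plus five library-drug doses (not always all listed) in √10 steps, and values are duplicate-plate medians.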

BAY61-3606 + Vorinostat = compound: COC1=C(C=C(C=C1)C2=CC3=NC=CN3C(=N2)NC4=C(C=CC=N4)C(=O)N)OC [BAY61-3606] + O=C(CCCCCCC(=O)Nc1ccccc1)NO [Vorinostat] (partner 1 µM)
Procedure, shortened: as §1

Doxorubicin + Lapatinib = compound: COc1cccc2c1C(=O)c1c(O)c3c(c(O)c1C2=O)C[C@@](O)(C(=O)CO)C[C@@H]3O[C@H]1C[C@H](N)[C@H](O)[C@H](C)O1 [Doxorubicin] + CS(=O)(=O)CCNCc1ccc(-c2ccc3ncnc(Nc4ccc(OCc5cccc(F)c5)c(Cl)c4)c3c2)o1 [Lapatinib] (partner 2 µM)
Procedure, shortened: as §1

Doxorubicin + Vorinostat = compound: COc1cccc2c1C(=O)c1c(O)c3c(c(O)c1C2=O)C[C@@](O)(C(=O)CO)C[C@@H]3O[C@H]1C[C@H](N)[C@H](O)[C@H](C)O1 [Doxorubicin] + O=C(CCCCCCC(=O)Nc1ccccc1)NO [Vorinostat] (partner 1 µM)
Procedure, shortened: as §1

Row | Cell Line | relative viability (BAY61-3606 + Phenformin; first compound 0.02 µM) | relative viability (BAY61-3606 + Phenformin; first compound 0.06325 µM) | relative viability (BAY61-3606 + Phenformin; first compound 0.2 µM) | relative viability (BAY61-3606 + Phenformin; first compound 0.6325 µM) | relative viability (BAY61-3606 + Phenformin; first compound 2 µM) | relative viability (BAY61-3606 + Vorinostat; first compound 0.02 µM) | relative viability (BAY61-3606 + Vorinostat; first compound 0.06325 µM) | relative viability (BAY61-3606 + Vorinostat; first compound 0.2 µM) | relative viability (BAY61-3606 + Vorinostat; first compound 0.6325 µM) | relative viability (BAY61-3606 + Vorinostat; first compound 2 µM) | relative viability (Doxorubicin + Lapatinib; first compound 0.001 µM) | relative viability (Doxorubicin + Lapatinib; first compound 0.003162 µM) | relative viability (Doxorubicin + Lapatinib; first compound 0.01 µM) | relative viability (Doxorubicin + Lapatinib; first compound 0.03162 µM) | relative viability (Doxorubicin + Lapatinib; first compound 0.1 µM) | relative viability (Doxorubicin + Vorinostat; first compound 0.001 µM) | relative viability (Doxorubicin + Vorinostat; first compound 0.003162 µM) | relative viability (Doxorubicin + Vorinostat; first compound 0.01 µM) | relative viability (Doxorubicin + Vorinostat; first compound 0.03162 µM) | relative viability (Doxorubicin + Vorinostat; first compound 0.1 µM)
1 | NCI-H1975 | 0.41 | 0.413 | 0.412 | 0.394 | 0.301 | 0.849 | 0.734 | 0.712 | 0.722 | 0.585 | 0.887 | 0.902 | 0.719 | 0.253 | 0.202 | 0.731 | 0.735 | 0.678 | 0.679 | 0.531
2 | NCI-H1944 | 0.211 | 0.196 | 0.193 | 0.201 | 0.182 | 0.65 | 0.538 | 0.515 | 0.559 | 0.487 | 0.872 | 0.827 | 0.857 | 0.693 | 0.841 | 0.554 | 0.632 | 0.541 | 0.416 | 0.497
3 | NCI-H2085 | 0.793 | 0.755 | 0.717 | 0.757 | 0.64 | 0.885 | 0.766 | 0.796 | 0.839 | 0.811 | 0.745 | 0.85 | 0.763 | 0.652 | 0.608 | 0.725 | 0.779 | 0.807 | 0.82 | 0.618
4 | COR-L 105 | 0.494 | 0.506 | 0.435 | 0.413 | 0.323 | 0.938 | 0.947 | 0.734 | 0.791 | 0.746 | 0.372 | 0.358 | 0.321 | 0.287 | 0.283 | 0.707 | 0.788 | 0.773 | 0.559 | 0.434
5 | NCI-H23 | 0.85 | 0.796 | 0.764 | 0.78 | 0.714 | 0.542 | 0.701 | 0.53 | 0.553 | 0.501 |  | 1.1 | 0.852 | 0.481 | 0.43 | 0.551 | 0.808 | 0.654 | 0.464 | 0.363
6 | PC-14 | 0.752 | 0.357 | 0.579 | 0.532 | 0.536 | 0.808 | 0.799 | 0.845 | 0.87 | 0.667 | 0.353 | 0.351 | 0.293 | 0.286 | 0.302 | 0.655 | 0.781 | 0.709 | 0.182 | 0.0946
7 | NCI-H2087 | 0.432 | 0.463 | 0.44 | 0.411 | 0.384 | 0.673 | 1.03 | 0.727 | 0.359 | 0.647 | 0.749 | 1.01 | 0.815 | 0.759 | 0.529 | 0.327 | 1.08 | 0.746 | 0.75 | 0.677
8 | NCI-H1755 | 0.666 | 0.6 | 0.578 | 0.656 | 0.59 | 0.871 | 0.676 | 0.764 | 0.803 | 0.733 | 0.962 | 1.05 | 0.991 | 1.07 | 0.998 | 0.78 | 0.749 | 0.716 | 0.788 | 0.827
9 | NCI-H2228 | 0.37 | 0.294 | 0.368 | 0.276 | 0.26 | 0.713 | 0.594 | 0.663 | 0.634 | 0.571 | 0.971 | 0.962 | 0.65 | 0.187 | 0.119 | 0.759 | 0.43 | 0.46 | 0.374 | 0.518
10 | EMC-BAC-2 | 0.582 | 0.509 | 0.485 | 0.521 | 0.444 | 0.499 | 0.385 | 0.6 | 0.42 | 0.425 | 0.943 | 0.956 | 0.801 | 0.415 | 0.269 | 0.872 | 0.311 | 0.241 | 0.22 | 0.114
11 | NCI-H2009 | 0.524 | 0.38 | 0.469 | 0.524 | 0.424 | 0.703 | 0.833 | 0.714 | 0.734 | 0.697 | 0.912 | 0.245 | 0.763 | 0.376 | 0.283 | 0.682 | 0.77 | 0.738 | 0.534 | 0.329
12 | NCI-H661 | 0.271 | 0.283 | 0.28 | 0.254 | 0.248 | 0.78 | 0.825 | 0.773 | 0.864 | 0.779 | 0.506 | 0.515 | 0.492 | 0.498 | 0.493 | 0.737 | 0.82 | 0.695 | 0.577 | 0.495
13 | NCI-H838 | 0.628 | 0.489 | 0.621 | 0.388 | 0.277 | 0.743 | 0.74 | 0.7 | 0.652 | 0.553 | 1.02 | 1.06 | 0.834 | 0.375 | 0.195 | 0.783 | 0.737 | 0.714 | 0.544 | 0.435
14 | NCI-H1915 | 0.369 | 0.376 | 0.328 | 0.366 | 0.261 | 0.515 | 0.528 | 0.478 | 0.511 | 0.483 | 0.975 | 0.929 | 0.99 | 0.975 | 0.99 | 0.521 | 0.57 | 0.532 | 0.5 | 0.527
15 | NCI-H1355 | 0.484 | 0.368 | 0.406 | 0.448 | 0.41 | 0.722 | 0.617 | 0.574 | 0.645 | 0.604 | 0.952 | 1.08 | 0.963 | 0.888 | 0.856 | 0.604 | 0.602 | 0.631 | 0.599 | 0.625
16 | NCI-H1651 | 0.332 | 0.311 | 0.325 | 0.279 | 0.302 | 0.62 | 0.509 | 0.523 | 0.539 | 0.542 | 0.784 | 0.729 | 0.475 | 0.166 | 0.129 | 0.572 | 0.591 | 0.569 | 0.533 | 0.495
